# Source: patent publication US20230094146A1, “DEUTERATED THIENOPYRIDINE COMPOUND” (MEDSHINE DISCOVERY INC., priority 2020, published 2023)
# pIC50: −log10 of the molar value. Structures can show the parent of a compound that is named as a salt.
# Key:
# [1] = Metabolic stability of liver microsomes in vitro; type: in vitro ADME, cynomolgus monkey; details: Monkey liver microsomes 0.5 mg/mL, compound 1 μM
# Protocol: (§1) SD rat, mouse, beagle, cynomolgus monkey and human microsomes were purchased from Corning, Xenotech or BioIVT and stored in a −80° C. freezer.
# (§2) 1.2 Nicotinamide adenine dinucleotide phosphate, reduced (NADPH), supplier: Chem-impex international, catalog number: 00616.
# (§3) 1.3 Control compounds: testosterone, diclofenac, propafenone.
# (§4) Stock solution: 10 mM DMSO solution.
# (§5) Working concentration preparation: 100% acetonitrile diluted to 100 μM (organic phase content: 99% ACN, 1% DMSO).
# (§6) Prepare two 96-well incubation plates, which were named T60 incubation plate and NCF60 incubation plate, respectively.
# (§7) 445 μL of microsomal working solution (liver microsomal protein concentration of 0.56 mg/mL) was added to the T60 incubation plate and NCF60 incubation plate, respectively, and then the above incubation plates were preincubated in a 37° C. water bath for about 10 minutes.
# (§8) After the preincubation, 5 μL of test substance or working solution of control compound were added to the T60 incubation plate and NCF60 incubation plate, respectively, and mixed well. The reaction was initiated by adding 50 μL of potassium phosphate buffer to each well of the NCF60 incubation plate; 180 μL of termination solution (acetonitrile solution containing 200 ng/mL tolbutamide and 200 ng/mL labetalol) and 6 μL of NADPH regeneration system working solution were added to the TO termination plate, and 54 μL of sample was removed from the T60 incubation plate to the TO termination plate (TO sample generation). The reaction was initiated by adding 44 μL NADPH regeneration system working solution to each well of the T60 incubation plate. 54 μL of microsomal working solution, 6 μL of NADPH regeneration system working solution and 180 μL of termination solution were added only to the blank plate. Therefore, in the samples of the test or control compounds, the final reaction concentration of compound, testosterone, diclofenac and propafenone was 1 μM, the concentration of liver microsomes was 0.5 mg/mL, and the final concentration of DMSO and acetonitrile in the reaction system were 0.01% (v/v) and 0.99% (v/v), respectively.
# (§9) After incubation for an appropriate time (e.g. 5, 10, 20, 30 and 60 minutes), 180 μL of termination solution (acetonitrile solution containing 200 ng/mL tolbutamide and 200 ng/mL labetalol) was added to the sample well of each termination plate, respectively, and then 60 μL of sample was removed from the T60 incubation plate to terminate the reaction.
# (§10) All sample plates were shaken well and centrifuged at 3220×g for 20 minutes, then 80 μL of supernatant per well was diluted into 240 μL of purified water for liquid chromatography tandem mass spectrometry analysis.
# (§11) All samples were injected for analysis.
# [2] = Metabolic stability of liver microsomes in vitro; type: in vitro ADME; details: compound 1 μM
# Protocol: as §1, §2, §3, §4, §5, §6, §7, §8, §9, §10, §11
# [3] = Metabolic stability of liver microsomes in vitro; type: in vitro ADME, beagle; details: Dog liver microsomes 0.5 mg/mL, compound 1 μM; for CLint scaled at 1 μM: beagle
# Protocol: as §1, §2, §3, §4, §5, §6, §7, §8, §9, §10, §11
# [4] = Pharmacokinetic evaluation in rats after oral administration; type: in vivo; details: Sprague-Dawley, plasma, 5 mg/kg, SD rat (male), 5 mpk
# Protocol: Testing the pharmacokinetic properties of the compounds of the present disclosure in rats.
# The pharmacokinetic characteristics of the compounds in rodents after oral administration were tested by standard protocols. In the experiment, the candidate compounds were formulated into a clarified solution and given to rats for oral administration. The vehicle was 10% NMP/40% PEG400/[…]. Whole blood samples were collected within 24 hours (0.0833, 0.25, 0.5, 1, 2, 4, 6, 8, 24 h), and all blood samples were added to the plastic centrifuge tubes pre-labeled with 0.5 M K2-EDTA anticoagulant.
# [5] = Metabolic stability of liver microsomes in vitro; type: in vitro ADME, SD rat; details: Rat liver microsomes 0.5 mg/mL, compound 1 μM; for CLint scaled at 1 μM: Sprague-Dawley
# Protocol: as §1, §2, §3, §4, §5, §6, §7, §8, §9, §10, §11
# VEGFR1 = molecular target: T1, VEGFR1 (Homo sapiens, UniProt P17948); test: 33P isotope-labeled kinase activity assay (Reaction Biology Corp); type: biochemical; details: 33P-ATP at Km concentration
# T1 construct: purchased Reaction Biology Corp
# T1 sequence (P17948 27-1338): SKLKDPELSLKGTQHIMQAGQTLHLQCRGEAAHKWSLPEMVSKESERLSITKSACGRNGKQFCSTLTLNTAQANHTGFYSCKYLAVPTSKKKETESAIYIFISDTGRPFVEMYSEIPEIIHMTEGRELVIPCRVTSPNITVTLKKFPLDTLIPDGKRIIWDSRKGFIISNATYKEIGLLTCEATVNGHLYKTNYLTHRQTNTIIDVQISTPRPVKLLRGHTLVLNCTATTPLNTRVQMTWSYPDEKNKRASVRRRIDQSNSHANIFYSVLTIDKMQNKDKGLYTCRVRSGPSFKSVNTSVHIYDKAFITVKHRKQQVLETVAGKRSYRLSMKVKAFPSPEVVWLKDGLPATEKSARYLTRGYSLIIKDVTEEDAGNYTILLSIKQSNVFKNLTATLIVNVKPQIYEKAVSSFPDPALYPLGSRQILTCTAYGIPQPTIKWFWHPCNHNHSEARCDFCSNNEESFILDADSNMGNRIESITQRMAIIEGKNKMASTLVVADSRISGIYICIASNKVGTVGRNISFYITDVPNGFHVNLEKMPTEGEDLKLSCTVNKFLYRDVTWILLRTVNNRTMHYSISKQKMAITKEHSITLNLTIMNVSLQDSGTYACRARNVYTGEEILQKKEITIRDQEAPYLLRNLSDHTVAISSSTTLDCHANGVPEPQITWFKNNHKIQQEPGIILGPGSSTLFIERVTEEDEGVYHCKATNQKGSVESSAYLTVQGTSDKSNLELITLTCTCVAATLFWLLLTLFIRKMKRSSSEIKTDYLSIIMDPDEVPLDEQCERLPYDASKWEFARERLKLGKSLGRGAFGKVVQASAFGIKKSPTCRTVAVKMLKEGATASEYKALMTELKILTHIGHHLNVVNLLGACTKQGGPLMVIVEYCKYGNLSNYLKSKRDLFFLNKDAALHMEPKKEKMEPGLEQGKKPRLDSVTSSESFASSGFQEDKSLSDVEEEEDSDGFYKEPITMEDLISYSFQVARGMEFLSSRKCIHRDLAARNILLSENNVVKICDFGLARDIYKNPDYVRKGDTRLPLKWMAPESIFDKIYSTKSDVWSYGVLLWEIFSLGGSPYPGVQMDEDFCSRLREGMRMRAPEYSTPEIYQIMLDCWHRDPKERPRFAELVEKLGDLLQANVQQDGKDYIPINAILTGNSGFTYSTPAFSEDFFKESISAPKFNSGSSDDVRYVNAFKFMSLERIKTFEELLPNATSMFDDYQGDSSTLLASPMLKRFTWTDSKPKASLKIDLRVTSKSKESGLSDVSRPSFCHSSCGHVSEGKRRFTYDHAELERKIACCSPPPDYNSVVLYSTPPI
# Protocol: (§12) The ^33P isotope-labeled kinase activity assay (Reaction Biology Corp) was used to determine the IC50 value to evaluate the inhibitory ability of the test compounds to Axl, c-Kit, Mer, DDR2, VEGFR1, VEGFR2, VEGFR3, TrkA, and FLT3.
# (§13) Buffer conditions: 20 mM hydroxyethylpiperazine […] (Hepes) (pH 7.5), 10 mM MgCl2, 1 mM ethylene glycol bisaminoethyl ether tetraacetic acid (EGTA), 0.02% polyoxyethylene dodecane Ether (Brij35), 0.02 mg/ml BSA, 0.1 mM Na3VO4, 2 mM dithiothreitol (DTT), 1% DMSO.
# (§14) Compound Treatment: Test compounds were dissolved in 100% DMSO and diluted serially to a specific concentration with DMSO by Integra Viaflo Assist.
# (§15) Test procedure: The substrate was dissolved in freshly prepared buffer, the tested kinase was added and gently mixed well. The DMSO solution containing the test compound was added to the above well mixed reaction solution using acoustic technique (Echo 550) and incubated at room temperature for […]. The compound concentrations in the reaction solution were 3 μM, 1 μM, 0.333 μM, 0.111 μM, 0.0370 μM, 0.0123 μM, 4.12 nM, 1.37 nM, 0.457 nM, 0.152 nM. After 15 minutes of incubation, ^33P-ATP (activity 0.01 μCi/μL, Km concentration) was added to start the reaction. The reaction was carried out at room temperature for 120 minutes, then radioactivity was detected by filter binding method. The kinase activity data were expressed by comparison between the kinase activity containing the test compound and the kinase activity of the blank group (containing DMSO only), and the IC50 values were obtained by curve fitting using Prism4 software (GraphPad), and the experimental results are shown in Table 1.
# VEGFR3 = molecular target: T2, VEGFR3 (Homo sapiens, UniProt P35916); test: as above; type: biochemical; details: 33P-ATP at Km concentration
# T2 construct: purchased Reaction Biology Corp
# T2 sequence (P35916 25-1363): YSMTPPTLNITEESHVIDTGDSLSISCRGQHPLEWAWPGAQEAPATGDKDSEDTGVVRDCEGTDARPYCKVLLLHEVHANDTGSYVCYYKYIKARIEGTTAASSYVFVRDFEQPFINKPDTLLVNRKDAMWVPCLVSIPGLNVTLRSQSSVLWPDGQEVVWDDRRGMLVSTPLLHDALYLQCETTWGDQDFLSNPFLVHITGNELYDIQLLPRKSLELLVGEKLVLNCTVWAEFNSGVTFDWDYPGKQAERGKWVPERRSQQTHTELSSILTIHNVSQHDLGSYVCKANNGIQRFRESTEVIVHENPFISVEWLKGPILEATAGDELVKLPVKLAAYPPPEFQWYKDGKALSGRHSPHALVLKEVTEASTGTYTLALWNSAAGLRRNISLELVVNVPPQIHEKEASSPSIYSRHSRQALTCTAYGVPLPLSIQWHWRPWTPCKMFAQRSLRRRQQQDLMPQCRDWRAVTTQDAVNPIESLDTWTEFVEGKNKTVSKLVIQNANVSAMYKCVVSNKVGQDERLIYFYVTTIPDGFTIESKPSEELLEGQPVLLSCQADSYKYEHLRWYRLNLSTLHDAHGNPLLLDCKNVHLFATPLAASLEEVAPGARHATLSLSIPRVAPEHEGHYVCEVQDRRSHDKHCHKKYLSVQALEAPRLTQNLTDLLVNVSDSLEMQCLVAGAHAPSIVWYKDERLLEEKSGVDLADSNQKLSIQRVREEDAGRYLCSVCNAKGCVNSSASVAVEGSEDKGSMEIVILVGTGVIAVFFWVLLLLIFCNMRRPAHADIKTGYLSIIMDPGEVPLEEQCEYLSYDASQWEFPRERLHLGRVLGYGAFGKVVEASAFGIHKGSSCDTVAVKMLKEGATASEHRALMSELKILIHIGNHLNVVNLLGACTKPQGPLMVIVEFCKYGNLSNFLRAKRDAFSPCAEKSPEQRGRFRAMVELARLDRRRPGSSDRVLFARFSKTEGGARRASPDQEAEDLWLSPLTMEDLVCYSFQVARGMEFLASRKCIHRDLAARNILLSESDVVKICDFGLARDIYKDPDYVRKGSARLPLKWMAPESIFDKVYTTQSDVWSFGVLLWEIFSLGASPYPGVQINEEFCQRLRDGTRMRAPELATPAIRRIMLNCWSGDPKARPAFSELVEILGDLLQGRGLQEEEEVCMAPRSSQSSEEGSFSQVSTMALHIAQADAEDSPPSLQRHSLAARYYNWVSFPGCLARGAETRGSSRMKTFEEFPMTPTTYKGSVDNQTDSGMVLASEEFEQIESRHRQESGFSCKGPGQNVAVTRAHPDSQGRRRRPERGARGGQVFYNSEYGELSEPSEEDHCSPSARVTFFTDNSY
# Protocol: as §12, §13, §14, §15
# DDR2 = molecular target: T3, DDR2 (Homo sapiens, UniProt Q16832); test: as above; type: biochemical; details: 33P-ATP at Km concentration
# T3 construct: purchased Reaction Biology Corp
# T3 sequence (Q16832 22-855): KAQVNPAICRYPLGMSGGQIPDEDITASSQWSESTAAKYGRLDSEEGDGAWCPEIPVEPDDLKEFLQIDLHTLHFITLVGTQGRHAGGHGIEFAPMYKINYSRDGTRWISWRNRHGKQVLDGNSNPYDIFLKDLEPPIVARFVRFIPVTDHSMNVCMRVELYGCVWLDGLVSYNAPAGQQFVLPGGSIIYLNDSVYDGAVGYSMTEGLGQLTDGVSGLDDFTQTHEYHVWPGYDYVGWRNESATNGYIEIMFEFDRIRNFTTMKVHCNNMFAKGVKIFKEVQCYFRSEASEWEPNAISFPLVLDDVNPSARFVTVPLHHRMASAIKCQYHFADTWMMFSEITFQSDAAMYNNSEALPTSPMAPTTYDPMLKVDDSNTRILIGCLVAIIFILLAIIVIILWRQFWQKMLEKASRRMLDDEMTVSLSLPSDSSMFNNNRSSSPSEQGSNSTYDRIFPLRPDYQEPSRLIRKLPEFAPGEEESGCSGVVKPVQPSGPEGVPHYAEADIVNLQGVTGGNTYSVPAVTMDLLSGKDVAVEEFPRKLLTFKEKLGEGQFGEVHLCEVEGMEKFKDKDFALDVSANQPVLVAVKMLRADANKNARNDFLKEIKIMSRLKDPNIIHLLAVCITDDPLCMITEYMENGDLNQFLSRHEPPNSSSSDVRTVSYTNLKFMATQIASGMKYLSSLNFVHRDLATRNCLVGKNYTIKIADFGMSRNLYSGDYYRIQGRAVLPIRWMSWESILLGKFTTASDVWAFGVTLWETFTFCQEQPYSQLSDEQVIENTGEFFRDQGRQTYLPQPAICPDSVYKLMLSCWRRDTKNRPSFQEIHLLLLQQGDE
# Protocol: as §12, §13, §14, §15
# VEGFR2 = molecular target: T4, VEGFR2 (Homo sapiens, UniProt P35968); test: as above; type: biochemical; details: 33P-ATP at Km concentration
# T4 construct: purchased Reaction Biology Corp
# T4 sequence (P35968 20-1356): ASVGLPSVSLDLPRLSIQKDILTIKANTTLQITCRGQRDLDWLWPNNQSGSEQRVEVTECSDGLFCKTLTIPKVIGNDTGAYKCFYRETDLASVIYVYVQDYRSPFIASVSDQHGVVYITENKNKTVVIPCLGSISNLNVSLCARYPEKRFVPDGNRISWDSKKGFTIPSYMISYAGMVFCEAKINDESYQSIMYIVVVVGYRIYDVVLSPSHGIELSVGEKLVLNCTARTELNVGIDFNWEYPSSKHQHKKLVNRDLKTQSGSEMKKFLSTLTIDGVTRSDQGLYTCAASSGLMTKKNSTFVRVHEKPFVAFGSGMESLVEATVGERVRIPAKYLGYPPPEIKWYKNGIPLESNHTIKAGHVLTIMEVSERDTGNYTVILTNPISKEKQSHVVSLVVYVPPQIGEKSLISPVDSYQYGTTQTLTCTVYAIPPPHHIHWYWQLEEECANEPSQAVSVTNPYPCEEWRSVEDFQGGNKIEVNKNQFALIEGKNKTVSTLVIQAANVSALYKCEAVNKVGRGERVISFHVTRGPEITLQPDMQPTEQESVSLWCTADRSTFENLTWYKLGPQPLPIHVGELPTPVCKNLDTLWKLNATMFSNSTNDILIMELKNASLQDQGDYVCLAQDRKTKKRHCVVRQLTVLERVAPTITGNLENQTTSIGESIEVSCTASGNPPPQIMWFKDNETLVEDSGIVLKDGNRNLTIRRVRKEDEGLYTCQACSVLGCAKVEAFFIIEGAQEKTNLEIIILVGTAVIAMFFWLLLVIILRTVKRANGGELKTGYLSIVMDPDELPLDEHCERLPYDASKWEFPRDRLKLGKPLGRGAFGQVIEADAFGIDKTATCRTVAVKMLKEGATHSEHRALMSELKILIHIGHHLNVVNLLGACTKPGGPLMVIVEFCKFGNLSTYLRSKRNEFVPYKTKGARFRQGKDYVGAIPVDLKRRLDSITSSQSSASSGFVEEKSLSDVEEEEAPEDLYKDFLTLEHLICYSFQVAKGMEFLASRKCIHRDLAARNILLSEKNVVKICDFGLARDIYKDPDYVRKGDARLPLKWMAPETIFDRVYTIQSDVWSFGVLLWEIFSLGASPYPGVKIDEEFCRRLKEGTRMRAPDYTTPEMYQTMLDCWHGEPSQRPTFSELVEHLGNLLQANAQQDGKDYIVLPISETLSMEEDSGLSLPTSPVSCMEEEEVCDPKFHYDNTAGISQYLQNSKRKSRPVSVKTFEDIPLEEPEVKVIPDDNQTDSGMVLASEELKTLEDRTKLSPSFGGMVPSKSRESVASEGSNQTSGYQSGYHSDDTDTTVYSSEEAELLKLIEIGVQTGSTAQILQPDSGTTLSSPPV
# Protocol: as §12, §13, §14, §15
# [6] = Human liver microsomes 0.5 mg/mL
# [7] = Mouse liver microsomes 0.5 mg/mL
Structure (SMILES),CLint scaled at 1 μM [1],60 min remaining [1],"CLint scaled at 1 μM [2, 6]","60 min remaining [2, 6]","CLint scaled at 1 μM [2, 7]","60 min remaining [2, 7]",60 min remaining [3],CLint scaled at 1 μM [3],AUC(0-t) [4],Cmax [4],Tmax [4],60 min remaining [5],CLint scaled at 1 μM [5],pIC50 (VEGFR1),pIC50 (VEGFR3),pIC50 (DDR2),pIC50 (VEGFR2)
"COCCNCc1ccc(-c2cc3nccc(Oc4ccc(NC(=O)C5(C(=O)Nc6ccc(F)cc6)CC5)cc4F)c3s2)nc1 [Sitravatinib, reference compound]",42.8 mL/min/kg,38.5%,10.6 mL/min/kg,71.5%,460 mL/min/kg,3.30%,2.6%,172 mL/min/kg,4.79 µM·h,801 nM,3 h,4.2%,192 mL/min/kg,,,,
[2H]C([2H])([2H])OCCNCc1ccc(-c2cc3nccc(Oc4ccc(NC(=O)C5(C(=O)Nc6ccc(F)cc6)CC5)cc4F)c3s2)nc1 [Trifluoroacetate of 001],22.5 mL/min/kg,55.9%,< 8.6 mL/min/kg,87.1%,321 mL/min/kg,9.5%,4.9%,144 mL/min/kg,6.65 µM·h,930 nM,1.25 h,28.6%,71.3 mL/min/kg,7.98,8.55,9.10,8.67
[2H]C([2H])([2H])OC([2H])([2H])CNCc1ccc(-c2cc3nccc(Oc4ccc(NC(=O)C5(C(=O)Nc6ccc(F)cc6)CC5)cc4F)c3s2)nc1 [Hydrochloride of 002],19.7 mL/min/kg,59.7%,< 8.6 mL/min/kg,96.4%,301 mL/min/kg,11.3%,5.4%,139 mL/min/kg,,,,26.2%,78.1 mL/min/kg,8.15,8.67,8.94,8.56
